pIC50: −log10 of the molar value.
What was measured:
[1] = Cell viability (MTT) assay in HepG2 cells; assay type: cell-based, human; details: human; HepG2 cells, 0.1 μM to 100 μM; read-out: IC50 (cytotoxicity)
Procedure: (§1) Cell viability assay in human epithelial colorectal adenocarcinoma (Caco-2) and human liver hepatocellular (HepG2) cells. Caco-2 and HepG2 Cells were cultured in DMEM-Dulbecco’s modified Eagle’s medium (Sigma-Aldrich) supplemented with 10% (v/v) inactivated fetal bovine serum (PAA Laboratories GmbH), 2 mM L-glutamine (Sigma-Aldrich), 100 U/mL penicillin and 100 μg/mL streptomycin (Sigma-Aldrich), in a humidified incubator at 37 °C with a 5% CO2 atmosphere. Cells (3 × 10^4 cells/well) were seeded into 96-well plates and incubated at 37 °C in 5% CO2 atmosphere. After 24 h, compounds were added at different concentrations (0.1–100 μM) and incubated in the same conditions. DMSO controls were performed to evaluate a possible solvent cytotoxicity, while pure DMSO was used as a cytotoxic drug. After the established incubation time with compounds, MTT (5 mg/mL) in PBS (Sigma-Aldrich) was added (10 μL) to each well. After 3 h incubation at 37 °C, in 5% CO2, the supernatant was removed. The formazan crystals were solubilized using ethanol/DMSO (1:1) (100 μL), and the absorbance values were determined at 570 nm on the microplate reader Victor3 from PerkinElmer Life Sciences.

[2] = test system: human liver hepatocellular (HepG2) cells; assay: Cell viability (MTT) assay in HepG2 cells; assay type: cell-based; details: at 100 μM
Procedure: as §1

[3] = biological target: T1, butyrylcholinesterase (BuChE) (Equus caballus, UniProt P81908); assay: biochemical; details: 100 µM compound
T1 construct: (BuChE, equine serum); from tissue; host or cells: equine serum
Procedure: Experimental procedures for cholinesterase inhibition a s sa y s. For cholinesterase inhibition tests (acetylcholinesterase (AChE, electrophorus
el ec t r ic u s) a n d b ut yr ylcholinesterase (BuChE, equine serum), the Ellman’s cholorimetric assay1 was followed, with minor modifications. DMSO
was kept within 1.25% cuvette concentration. The chromogenic agent DTNB [5,5’-dithiobis(2-nitrobenzoic acid)] was fixed at 0.975 mM
con centration; 0. 1 M phosphate buffer (pH 8. 0) was employed, T = 25 °C, and the reaction was monitored for 125 s. […]
of inhibition, the substrate concentration (acetylthiocholine iodide for AChE; S- butyr ylthiocholine iodide for BuChE) was fixed at 29 µM for
AChE and at 18.2 µM concentration for BuChE.
Lineweaver-Burk plot (or double reciprocal plot, 1/V vs . 1/ [S ]) wa s u se d for estimating both, the mode of inhibition and the inhibition constants […]
Competitive inhibition (inhibitor only bonds the free enzyme):
KKiiii = [II ]KKMM iiaaaa
M i xe d inhibition (inhibitor binds both, the free and the complexed enzyme) :
Uncompetitive (the inhibitors only binds the complexed enzyme):
N on -competitive (inhibitor binds both the free enzyme and the complexed enzyme with equal affinity) :
Table S3. […]
of the synthesized flavone analogues at 100 µ M.
C omp ou n d N o. AChE B uChE

[4] = biological target: acetylcholinesterase (AChE) (Electrophorus electricus, UniProt O42275); assay: Acetylcholinesterase inhibition, Ellman's colorimetric assay; assay type: biochemical; details: 100 µM compound; read-out: AChE inhibitory efficacy (percentage of inhibition)
Procedure: For cholinesterase inhibition tests (acetylcholinesterase (AChE, electrophorus
was kept within 1.25% cuvette concentration.
AChE and at 18.2 µM concentration for BuChE. […]

[5] = Cell viability (MTT) assay in Caco-2 cells; assay type: cell-based, human; details: human; Caco-2 cells, 0.1 μM to 100 μM; read-out: IC50 (cytotoxicity)
Procedure: as §1

[6] = test system: human epithelial colorectal adenocarcinoma (Caco-2) cells; assay: Cell viability (MTT) assay in Caco-2 cells; assay type: cell-based; details: at 100 μM
Procedure: as §1

Sequence of acetylcholinesterase (AChE) (O42275 24-633): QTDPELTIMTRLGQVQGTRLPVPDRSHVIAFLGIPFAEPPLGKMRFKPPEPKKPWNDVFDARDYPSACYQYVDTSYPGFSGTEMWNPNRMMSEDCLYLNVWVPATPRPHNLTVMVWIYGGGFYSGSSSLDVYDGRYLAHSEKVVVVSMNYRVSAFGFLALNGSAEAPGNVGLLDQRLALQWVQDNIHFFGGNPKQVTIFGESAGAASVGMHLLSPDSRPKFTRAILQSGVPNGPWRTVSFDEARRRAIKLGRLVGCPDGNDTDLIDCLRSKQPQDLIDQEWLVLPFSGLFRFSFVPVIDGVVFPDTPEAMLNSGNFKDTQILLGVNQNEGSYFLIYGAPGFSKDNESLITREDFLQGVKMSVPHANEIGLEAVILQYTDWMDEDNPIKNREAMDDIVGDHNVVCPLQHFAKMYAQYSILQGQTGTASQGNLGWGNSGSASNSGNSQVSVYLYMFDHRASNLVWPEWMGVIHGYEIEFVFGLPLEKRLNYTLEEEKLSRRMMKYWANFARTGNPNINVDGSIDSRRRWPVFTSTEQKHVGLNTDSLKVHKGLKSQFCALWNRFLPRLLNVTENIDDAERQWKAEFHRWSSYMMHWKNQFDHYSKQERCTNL
T1 sequence (P81908 whole entry): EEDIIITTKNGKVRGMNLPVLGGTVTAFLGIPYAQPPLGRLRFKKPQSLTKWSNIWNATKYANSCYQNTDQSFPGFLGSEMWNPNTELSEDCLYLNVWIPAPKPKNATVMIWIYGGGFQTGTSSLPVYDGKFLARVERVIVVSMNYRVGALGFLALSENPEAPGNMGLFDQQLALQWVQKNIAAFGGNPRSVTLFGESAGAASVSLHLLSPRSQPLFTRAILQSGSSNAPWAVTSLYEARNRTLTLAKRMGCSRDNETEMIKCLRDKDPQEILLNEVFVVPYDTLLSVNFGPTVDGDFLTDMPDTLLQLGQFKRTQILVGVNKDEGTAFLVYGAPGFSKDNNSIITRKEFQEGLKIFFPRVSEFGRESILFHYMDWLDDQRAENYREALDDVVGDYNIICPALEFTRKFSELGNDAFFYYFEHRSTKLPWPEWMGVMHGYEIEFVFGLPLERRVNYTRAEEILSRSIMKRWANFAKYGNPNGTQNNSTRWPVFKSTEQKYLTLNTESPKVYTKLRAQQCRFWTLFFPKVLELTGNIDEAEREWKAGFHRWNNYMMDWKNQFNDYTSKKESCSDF

## O=c1cc(-c2ccc(N3CCOCC3)cc2)oc2c([C@@H]3O[C@H](CO)[C@@H](O)[C@H](O)[C@H]3O)c(O)cc(O)c12 [Compound 19, 8-(β-D-Glucopyranosyl)-5,7-dihydroxy-4′-(morpholin-4-yl)flavone]
[1]
  pIC50: ≤ 4.00
[2]
  Cytotoxicity towards HepG2 cells: did not show any cytotoxicity
[3]
  BuChE inhibitory efficacy (percentage of inhibition): n.i .
[4]
  inhibition at 100 µM: 18%
[5]
  pIC50: ≤ 4.00
[6]
  Cytotoxicity towards Caco-2 cells: did not show any cytotoxicity

From publication PMC6630837 (Pharmaceuticals, 2019)
